Source: patent US20100056526A1, “HETEROMONOCYCLIC COMPOUND AND USE THEREOF” (Takeda Pharmaceutical Company Limited, priority 2006, published 2010)

Experiments:
PPARγ = molecular target: T1, PPARγ (Homo sapiens, UniProt P37231); test: Evaluation of PPARγ activating action (luciferase reporter in PPARγ:RXRα:4ERPP/CHO-K1 cells); format: cell-based; settings: CHO-K1, 24 h; test compound 10^−6 M; luciferase activity relative to control compound X (1 μM) = 100%, non-administration group = 0%; read-out: PPARγ activating action (activation % (10^−6 M))
T1 construct: expressed in transfected cells; host or cells: CHO-K1
T1 sequence (P37231 1-477 isoform P37231-2): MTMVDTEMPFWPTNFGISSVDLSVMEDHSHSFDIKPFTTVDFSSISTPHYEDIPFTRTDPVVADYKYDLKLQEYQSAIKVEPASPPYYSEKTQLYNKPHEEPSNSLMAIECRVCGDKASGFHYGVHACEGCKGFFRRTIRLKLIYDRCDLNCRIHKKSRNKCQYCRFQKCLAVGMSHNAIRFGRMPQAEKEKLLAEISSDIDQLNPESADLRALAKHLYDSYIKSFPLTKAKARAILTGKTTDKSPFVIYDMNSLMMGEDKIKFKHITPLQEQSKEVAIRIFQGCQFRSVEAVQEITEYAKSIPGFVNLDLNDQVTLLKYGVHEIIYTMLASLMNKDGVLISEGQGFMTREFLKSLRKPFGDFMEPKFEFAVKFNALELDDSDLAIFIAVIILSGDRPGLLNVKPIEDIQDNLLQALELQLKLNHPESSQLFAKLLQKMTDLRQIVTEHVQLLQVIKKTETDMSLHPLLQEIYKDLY
T1 sequence (P19793 1-462 partner): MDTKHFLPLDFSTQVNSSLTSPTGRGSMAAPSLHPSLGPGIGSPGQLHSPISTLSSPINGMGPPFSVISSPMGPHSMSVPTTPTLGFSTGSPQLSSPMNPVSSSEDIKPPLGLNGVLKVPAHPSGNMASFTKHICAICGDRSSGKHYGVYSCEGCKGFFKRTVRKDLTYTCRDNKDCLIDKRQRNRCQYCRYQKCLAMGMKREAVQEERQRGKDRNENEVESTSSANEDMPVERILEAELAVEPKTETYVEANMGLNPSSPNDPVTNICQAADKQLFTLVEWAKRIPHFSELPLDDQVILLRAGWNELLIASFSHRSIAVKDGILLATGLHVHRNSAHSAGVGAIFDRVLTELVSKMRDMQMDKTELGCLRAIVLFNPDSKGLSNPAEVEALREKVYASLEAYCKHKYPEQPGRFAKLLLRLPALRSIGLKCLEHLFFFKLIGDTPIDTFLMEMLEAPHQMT
Experimental: PPARγ:RXRα:4ERPP/CHO-K1 cells obtained in the following Reference Example 5 were cultured in F12 medium [manufactured by INVITROGEN, USA] containing 10% fetal bovine serum [manufactured by MOREGATE, Australia], seeded in a 96-well half area white plate [manufactured by Corning Coster Corporation, USA] at the density of 5×10^3 cells/well and cultured in a CO2 gas incubator at 37° C. overnight.
Then the medium was removed from the 96-well half area white plate, 45 μl of Ham's F12 medium containing 0.1% fatty acid-free bovine serum albumin (BSA) and 5 μl of test compound were added, and the cells were cultured in a CO2 gas incubator at 37° C. for 1 day. The medium was removed and 20 μl of PicaGene 7.5 [manufactured by TOYO INK MFG. CO., LTD.,.Japan] diluted 2-fold with HBSS (HANKS' BALANCED SALT SOLUTION) [manufactured by BIO WHITTAKER, USA] was added. After stirring, the luciferase activity was determined using 1420 ARVO Multilabel Counter [manufactured by PerkinElmer, USA].
The percent (%) was calculated from the luciferase activity of each test compound when the luciferase activity of the control compound (compound X: 5-[3-(4-{[2-(2-furyl)-5-methyl-1,3-oxazol-4-yl]methoxy}-3-methoxyphenyl)propyl]-1,3-oxazolidine-2,4-dione) (1 μM) was 100% and that of the test compound non-administration group was 0%.
A CHO-K1 cell cultured in a 150 cm^2 cell culture flask [manufactured by Corning Costar Corporation, USA] containing Ham's F12 medium [manufactured by INVITROGEN, USA] supplemented with 10% fetal bovine serum [manufactured by INVITROGEN, USA] was scraped by treating with 0.5 g/L trypsin-0.2 g/L EDTA (ethylenediaminetetraacetic acid) [manufactured by Life Technologies, Inc., USA], and then the cell was washed with PBS (Phosphate-buffered saline) [manufactured by INVITROGEN, USA], centrifuged (1000 rpm, 5 minutes) and suspended in PBS. Subsequently, DNA was introduced into the cell under the conditions shown below using GENE PULSER [manufactured by Bio-Rad Laboratories, USA].
Namely, to a cuvette having a 0.4 cm gap were added 8×10^6 cells and 10 μg of plasmid pVgRXR2-hPPARγ obtained in Reference Example 4 and 10 μg of reporter plasmid pGL3-4ERPP-TK neo obtained in Reference Example 3, which was subjected to electroporation at the voltage of 0.25 kV under the capacitance of 960 μF. Subsequently, the cell was transferred into a F12 medium containing 10% fetal bovine serum and cultured for 24 hours, and then the cell was scraped again and centrifuged, and then suspended in Ham's F12 medium containing 10% fetal bovine serum supplemented with 500 μg/ml of Geneticin [manufactured by INVITROGEN, USA] and 250 μg/ml of Zeocin [manufactured by INVITROGEN, USA]. The obtained suspension was diluted to the density of 10^4 cells/ml and inoculated in a 96-well plate [manufactured by Corning Costar Corporation, USA], which was cultured in a CO2 gas incubator at 37° C., whereby obtaining a Geneticin- and Zeocin-resistant transformant.
Subsequently, after the transformant cell line thus obtained was cultured in a 24-well plate [manufactured by Corning Costar Corporation, USA], a cell line in which the luciferase was expressed and induced, i.e., PPARγ:RXRα:4ERPP/CHO-K1 cell was selected by the addition of 10 μM pioglitazone hydrochloride.

human AT1 receptor = molecular target: T2, human AT1 receptor (Homo sapiens, UniProt P30556); test: Binding assay using human AT1 receptor-expressing CHO-K1 cell membrane fraction ([125I]-angiotensin II); settings: 22.5 pM [125I]-angiotensin II, 9 μg AT1 membrane, 1 hr room temperature; read-out: AT1 receptor binding inhibitory action (IC50 (nM))
T2 construct: expressed in transfected cells; host or cells: CHO-K1
T2 sequence (P30556 1-359): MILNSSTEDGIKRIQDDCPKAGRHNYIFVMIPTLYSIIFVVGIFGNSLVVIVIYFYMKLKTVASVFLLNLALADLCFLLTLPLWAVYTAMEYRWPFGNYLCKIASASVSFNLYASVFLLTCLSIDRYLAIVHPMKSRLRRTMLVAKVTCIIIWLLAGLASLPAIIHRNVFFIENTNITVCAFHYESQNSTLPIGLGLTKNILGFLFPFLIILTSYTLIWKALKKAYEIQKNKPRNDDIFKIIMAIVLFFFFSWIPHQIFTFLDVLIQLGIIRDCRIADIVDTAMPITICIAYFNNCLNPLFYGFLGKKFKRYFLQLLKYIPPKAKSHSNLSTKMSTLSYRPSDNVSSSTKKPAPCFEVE
Experimental: The membrane fraction for human AT1 receptor binding assay was prepared as follows. CHO-K1 cell capable of stable expression of human AT1 receptor was cultured, recovered, suspended in homogenize buffer (10 mM NaHCO3 (pH 7.4), 5 mM EDTA, 1×Complete EDTA free) [manufactured by Roche, Switzerland], and homogenized. The homogenate was centrifuged at low-speed (900×g, 10 min, 4° C.), and the supernatant was recovered and ultracentrifuged (90,000×g, 1 hr, 4° C.). The supernatant was discarded, and the pellets were resuspended in resuspension buffer (50 mM Tris (pH 7.4), 1 mM EDTA, 1×Complete EDTA free).
The binding assay was performed in the presence of 22.5 pM [^125I]-angiotensin II [manufactured by PerkinElmer, USA], 9 μg of AT1 membrane and test compound in 100 μL (total reaction volume) of reaction buffer (50 mM Tris (pH 7.4), 10 mM MgCl2 supplemented or not supplemented with 0.3 mg/mL fatty acid-free bovine serum albumin [manufactured by Wako Pure Chemical Industries, Ltd., Japan]). The reaction mixture was incubated in 96 well polypropylene plate for 1 hr at room temperature, and the reaction was quenched by rapid filtration (96 well cell harvester) through a GF/C filter treated with wash buffer (50 mM Tris (pH 7.4)). Subsequently, the filter was washed 5 times with 0.3 mL of ice-cooled wash buffer. The filter was air-dried, and [^125I]-angiotensin II binding radioactivity was assayed with Top Count scintillation counter. Total binding was measured in the presence of 1% DMSO and nonspecific binding was measured in the presence of 1 μM CV-11974. The binding data was analyzed by GraphPad Prism program and the IC50 value (compound concentration showing 50% of the maximum value of inhibition percent) of the test compound was calculated.

Row | SMILES | activation at 1 µM (PPARγ) [%] | IC50 (human AT1 receptor) [nM]
1 | CCCCc1nc(C)n(-c2ccc3c(c2)CC(C)(C)O3)c(=O)c1Cc1ccc(-c2ccccc2-c2noc(O)n2)cc1 [Example 234, 6-butyl-3-(2,2-dimethyl-2,3-dihydro-1-benzofuran-5-yl)-2-methyl-5-{[2′-(5-oxo-4,5-dihydro-1,2,4-oxadiazol-3-yl)biphenyl-4-yl]methyl}pyrimidin-4(3H)-one] | 33.9 | 1.2
2 | CCCc1nc(CC)n(-c2ccc(O[C@H]3CC[C@H](O)CC3)cc2)c(=O)c1Cc1ccc(-c2ccccc2-c2noc(=O)[nH]2)cc1 [Example 414, 2-ethyl-3-{4-[(trans-4-hydroxycyclohexyl)oxy]phenyl}-5-{[2′-(5-oxo-4,5-dihydro-1,2,4-oxadiazol-3-yl)biphenyl-4-yl]methyl}-6-propylpyrimidin-4(3H)-one] | 45 | 1.1
3 | CCCc1nc(C)n(-c2ccc(OC3CCC3)cc2)c(=O)c1Cc1ccc(-c2ccccc2-c2noc(=O)[nH]2)cc1 [Example 255, 3-[4-(cyclobutyloxy)phenyl]-2-methyl-5-{[2′-(5-oxo-4,5-dihydro-1,2,4-oxadiazol-3-yl)biphenyl-4-yl]methyl}-6-propylpyrimidin-4(3H)-one] | 30.5 | 1.7
4 | CCCc1nc(CC)c(Oc2ccc(CC)cc2)c(=O)n1Cc1ccc(-c2ccccc2-c2noc(O)n2)cc1 [Example 480, 6-ethyl-5-(4-ethylphenoxy)-3-{[2′-(5-oxo-4,5-dihydro-1,2,4-oxadiazol-3-yl)biphenyl-4-yl]methyl}-2-propylpyrimidin-4(3H)-one] | 30.8 | 3.2
5 | CCCCc1nc(C(C)C)n(-c2ccc3c(c2)CCO3)c(=O)c1Cc1ccc(-c2ccccc2-c2noc(=O)[nH]2)cc1 [Example 118, 6-butyl-3-(2,3-dihydro-1-benzofuran-5-yl)-2-isopropyl-5-{[2′-(5-oxo-4,5-dihydro-1,2,4-oxadiazol-3-yl)biphenyl-4-yl]methyl}pyrimidin-4(3H)-one] | 50.2 | 1.8
6 | CCCCc1nn(-c2ccc3c(c2)CC(C)(C)O3)c(=O)n1Cc1ccc(-c2ccccc2-c2noc(=O)[nH]2)cc1 [Example 136, 3-(4′-{[3-butyl-1-(2,2-dimethyl-2,3-dihydro-1-benzofuran-5-yl)-5-oxo-1,5-dihydro-4H-1,2,4-triazol-4-yl]methyl}biphenyl-2-yl)-1,2,4-oxadiazol-5(4H)-one] | 32.9 | 2.9

Next, values leading:

Row | activation at 1 µM (PPARγ) [%] | IC50 (human AT1 receptor) [nM] | SMILES
7 | 40.9 | 1.8 | CCCc1nc(C)c(Cc2ccccc2)c(=O)n1Cc1ccc(-c2ccccc2-c2noc(=O)[nH]2)cc1 [Example 287, 5-benzyl-6-methyl-3-{[2′-(5-oxo-4,5-dihydro-1,2,4-oxadiazol-3-yl)biphenyl-4-yl]methyl}-2-propylpyrimidin-4(3H)-one]
8 | 48.4 | 2.4 | CCCc1nc(CC)n(-c2ccc(OC(C)C)nc2)c(=O)c1Cc1ccc(-c2ccccc2-c2noc(=O)[nH]2)cc1 [Example 373, 2-ethyl-3-(6-isopropoxypyridin-3-yl)-5-{[2′-(5-oxo-4,5-dihydro-1,2,4-oxadiazol-3-yl)biphenyl-4-yl]methyl}-6-propylpyrimidin-4(3H)-one]
9 | 16.2 | 1.2 | CCCc1nc(C)c(-c2ccc(OC(C)(C)CO)cc2)c(=O)n1Cc1ccc(-c2ccccc2-c2noc(=O)[nH]2)cc1F [Example 509, 3-{[3-fluoro-2′-(5-oxo-4,5-dihydro-1,2,4-oxadiazol-3-yl)biphenyl-4-yl]methyl}-5-[4-(2-hydroxy-1,1-dimethylethoxy)phenyl]-6-methyl-2-propylpyrimidin-4(3H)-one]
10 | 30.4 | 1.9 | CCCc1nc(C)c(-c2ccc(OC(C)C)nc2)c(=O)n1Cc1ccc(-c2ccccc2-c2noc(=O)[nH]2)cc1F [Example 482, 3-{[3-fluoro-2′-(5-oxo-4,5-dihydro-1,2,4-oxadiazol-3-yl)biphenyl-4-yl]methyl}-5-(6-isopropoxypyridin-3-yl)-6-methyl-2-propylpyrimidin-4(3H)-one]
